In patent US20240241108A1, “LUNG ORGANOID MODEL AND METHOD OF USE” (The Regents of the University of California, priority 2021, published 2024):

What was measured:
SARS-COV-2 [1] = assay: Pre-clinical drug screen in SARS-COV-2-infected lung organoid monolayers (384-well), viral E gene qPCR readout; assay type: cell-based; conditions: FIG. 3G; for viral titer (abundance of E gene in the monolayers): pre-treated for 4 hours prior to infection, assessed at 48 hours post-infection, DMSO control
Protocol: Using the E gene as a readout, it was determined whether lung organoid models could be used as platforms for pre-clinical drug screens. The efficacy of nucleoside analog N^4-hydroxycytidine (NHC: EIDD-parent) and its derivative pro-drug. EIDD-2801, were tested. […] Lung organoid monolayers plated in 384-wells were pre-treated for 4 hours with the compounds or DMSO, as a control, prior to infection. The monolayers were assessed at 48 hours post-infection for the abundance of E gene in the monolayers.
Densely packed organoids, collected in PBS/0.5 mM EDTA were centrifuged at 200 rcf for 5 minutes. Organoids were dissociated in 2 mL trypLE Select (Gibco, USA) per 12 wells of organoids at 37 °C for 4-5 minutes and mechanically sheared by pipetting up and down. The TrypLE was inactivated with al-to-5 trypLE to Lung Wash Media ratio. The cells were thereafter centrifuged at 300 g for 4 minutes. The supernatant was aspirated and resuspended in the cell pellet at room temperature using PneumaCult Ex-Plus Mix, with larger clumps of cells being filtered out using […] filter. The viable cells were counted and plated using PneumaCult Ex-Plus media. Cells were either plated 10^5 cells per well in a 96 well plate, or 2×10^4 cells per well in a 384 well Matrigel coated plate. The media was changed after 24 hours of incubation. After 48 hours of plating, the cells were differentiated and appeared flattened. The cells were then infected with MOI of 0.5 with SARS-COV-2. After treatment, the lung monolayers were used for RNA sequencing, immunostaining, and other functional assay.
Lung organoid-derived monolayers or primary airway epithelial cells, either in 384 well plates or in transwells, were washed twice with antibiotic-free lung wash media. […]
Assessment of SARS-COV-2 infectivity test was determined by qPCR using TaqMan assays and TaqMan Universal PCR Master Mix96.97. cDNA was amplified with gene-specific primer/probe set for the E gene and qPCR was performed with the Applied Biosystems QuantStudio 3 Real-Time PCR System. […]

SARS-COV-2 [2] = conditions: cited from earlier work
SARS-COV-2 [3] = conditions: cited from earlier work; remark: listed apart in the source

| Structure (SMILES) | efficacy compared with the parent compound (reduction of viral titer) (SARS-COV-2 [1]; pre-treated 4 hours, 48 hours post-infection) | viral titer (abundance of E gene in the monolayers) (SARS-COV-2 [1]) | inhibition of viral replication in vitro (SARS-COV-2 [2]) | inhibition of viral replication in SARS-COV-2-challenged ferrets (SARS-COV-2 [3]) |
| --- | --- | --- | --- | --- |
| CC(C)C(=O)OC[C@H]1O[C@@H](n2ccc(NO)nc2=O)[C@H](O)[C@@H]1O [EIDD-2801] | showed a better efficacy | effectively reduced the viral titer in a dose-dependent manner | inhibit viral replication | inhibit viral replication |
| O=c1nc(NO)ccn1[C@@H]1O[C@H](CO)[C@@H](O)[C@H]1O [NHC, N^4-hydroxycytidine] | – | effectively reduced the viral titer in a dose-dependent manner | inhibit viral replication | inhibit viral replication |
